{"source": "patent US20020155064A1", "about": "“Method for detection and localization of malignant human tumours” (priority 1997, published 2002)", "tested_on": "neurotensin receptors", "assay": "Receptor autoradiography displacement of [125I]-neurotensin binding on tumour tissue sections", "conditions": "tissue sections from human differentiated ductal pancreatic adenocarcinoma; 40,000 cpm/100 µl [125I]-neurotensin, increasing concentrations of unlabelled peptide; 4° C., 60 minutes; FIG. 1", "protocol": "Receptor autoradiography is performed on 10- and 20-mm thick cryostat sections of the various tumour samples, as described by Reubi et al. (Cancer Res. 1990, 50, 5969-5977). […] After incubation, the sections are washed for eight minutes at 4° C. in four consecutive baths containing 50 mM Tris-HCl buffer, pH 7.6, dipped in ice-cold water, and then quickly dried in a refrigerator under a stream of cold air. The sections are subsequently exposed to a ^3H-Ultrofilm for 1 week, to detect the precise location of the radioactivity. […] Each point represents the optical density of binding measured in the tumour area. Non-specific binding is subtracted from all values.", "data": [{"substance": "Ac-Arg-Arg-Pro-Tyr-Ile-Leu-OH [acetyl-neurotensin 8-13]", "values": [{"measurement": "displacement of [125I]-neurotensin binding", "value": "Complete displacement"}]}]}
